Results published in PubChem BioAssay (NCI).
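Cells were grown in 96-well plates and exposed to each compound for 48 hours at five concentrations; endpoints were interpolated linearly between bracketing concentrations, or set to the highest concentration if not reached. GI50 is the concentration that inhibits growth by half. Definition used: TGI = concentration required for complete inhibition of growth.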

Tests used:
Experiment in all cases: DTP human tumour cell line panel, 48 h
SW-620 colon = tested on: SW-620 colon
OVCAR-4 ovarian = tested on: OVCAR-4 ovarian
NCI-H522 lung = tested on: NCI-H522 lung
EKVX NSCLC = tested on: EKVX NSCLC
HT29 colon = tested on: HT29 colon
MALME-3M melanoma = tested on: MALME-3M melanoma
SF-539 CNS = tested on: SF-539 CNS
SNB-19 CNS = tested on: SNB-19 CNS
A549 NSCLC = tested on: A549 NSCLC
A498 renal = tested on: A498 renal
CAKI-1 renal = tested on: CAKI-1 renal
UO-31 renal = tested on: UO-31 renal
SF-295 CNS = tested on: SF-295 CNS
LOX IMVI melanoma = tested on: LOX IMVI melanoma
RXF 393 renal = tested on: RXF 393 renal
CCRF-CEM leukemia = tested on: CCRF-CEM leukemia
M14 melanoma = tested on: M14 melanoma
TK-10 renal = tested on: TK-10 renal
IGROV1 ovarian = tested on: IGROV1 ovarian
OVCAR-3 ovarian = tested on: OVCAR-3 ovarian
SF-268 CNS = tested on: SF-268 CNS
SK-MEL-5 melanoma = tested on: SK-MEL-5 melanoma
SN12C renal = tested on: SN12C renal
ACHN renal = tested on: ACHN renal
NCI/ADR-RES ovarian = tested on: NCI/ADR-RES ovarian
HCT-116 colon = tested on: HCT-116 colon
NCI-H23 lung = tested on: NCI-H23 lung
UACC-257 melanoma = tested on: UACC-257 melanoma
HOP-62 NSCLC = tested on: HOP-62 NSCLC
SK-MEL-2 melanoma = tested on: SK-MEL-2 melanoma
SK-MEL-28 melanoma = tested on: SK-MEL-28 melanoma
SK-OV-3 ovarian = tested on: SK-OV-3 ovarian
COLO 205 colon = tested on: COLO 205 colon
K-562 leukemia = tested on: K-562 leukemia
BT-549 breast = tested on: BT-549 breast
OVCAR-8 ovarian = tested on: OVCAR-8 ovarian
MOLT-4 leukemia = tested on: MOLT-4 leukemia
NCI-H226 lung = tested on: NCI-H226 lung
HS 578T breast = tested on: HS 578T breast
HCC-2998 colon = tested on: HCC-2998 colon
PC-3 prostate = tested on: PC-3 prostate
MDA-MB-231 breast = tested on: MDA-MB-231 breast
DU-145 prostate = tested on: DU-145 prostate
KM12 colon = tested on: KM12 colon
HCT-15 colon = tested on: HCT-15 colon
T-47D breast = tested on: T-47D breast
UACC-62 melanoma = tested on: UACC-62 melanoma
NCI-H460 lung = tested on: NCI-H460 lung
HL-60(TB) leukemia = tested on: HL-60(TB) leukemia
MDA-MB-435 = tested on: MDA-MB-435
HOP-92 NSCLC = tested on: HOP-92 NSCLC
OVCAR-5 ovarian = tested on: OVCAR-5 ovarian
U251 CNS = tested on: U251 CNS
SNB-75 CNS = tested on: SNB-75 CNS
786-0 renal = tested on: 786-0 renal
MCF7 breast = tested on: MCF7 breast

CC1CN(S(=O)(=O)c2oc(-c3ccc(Cl)cc3)nc2C#N)CC(C)O1 (configuration not stated)
GI50 (SW-620 colon): 1.36 µM
TGI (SW-620 colon): 3.09 µM
GI50 (OVCAR-4 ovarian): 2.02 µM
TGI (OVCAR-4 ovarian): 4.65 µM
GI50 (NCI-H522 lung): 0.945 µM
TGI (NCI-H522 lung): 2.79 µM
GI50 (EKVX NSCLC): 7.34 µM
TGI (EKVX NSCLC): 27.9 µM
GI50 (HT29 colon): 2.06 µM
TGI (HT29 colon): 4.11 µM
GI50 (MALME-3M melanoma): 1.57 µM
TGI (MALME-3M melanoma): 2.96 µM
GI50 (SF-539 CNS): 1.78 µM
TGI (SF-539 CNS): 3.28 µM
GI50 (SNB-19 CNS): 12.5 µM
TGI (SNB-19 CNS): 25 µM
GI50 (A549 NSCLC): 15.5 µM
TGI (A549 NSCLC): 32.9 µM
GI50 (A498 renal): 14.4 µM
TGI (A498 renal): 27.5 µM
GI50 (CAKI-1 renal): 1.56 µM
TGI (CAKI-1 renal): 2.93 µM
GI50 (UO-31 renal): 1.56 µM
TGI (UO-31 renal): 2.91 µM
GI50 (SF-295 CNS): 13.8 µM
TGI (SF-295 CNS): 27.2 µM
GI50 (LOX IMVI melanoma): 0.926 µM
TGI (LOX IMVI melanoma): 2.35 µM
GI50 (RXF 393 renal): 1.69 µM
TGI (RXF 393 renal): 3.15 µM
GI50 (CCRF-CEM leukemia): 0.505 µM
TGI (CCRF-CEM leukemia): 4.24 µM
GI50 (M14 melanoma): 1.62 µM
TGI (M14 melanoma): 3.39 µM
GI50 (TK-10 renal): 1.75 µM
TGI (TK-10 renal): 3.26 µM
GI50 (IGROV1 ovarian): 1.87 µM
TGI (IGROV1 ovarian): 3.69 µM
GI50 (OVCAR-3 ovarian): 1.56 µM
TGI (OVCAR-3 ovarian): 3.12 µM
GI50 (SF-268 CNS): 1.93 µM
TGI (SF-268 CNS): 4.14 µM
GI50 (SK-MEL-5 melanoma): 2.27 µM
TGI (SK-MEL-5 melanoma): 5.16 µM
GI50 (SN12C renal): 1.7 µM
TGI (SN12C renal): 3.23 µM
GI50 (ACHN renal): 1.74 µM
TGI (ACHN renal): 3.13 µM
GI50 (NCI/ADR-RES ovarian): 10.7 µM
TGI (NCI/ADR-RES ovarian): 65.5 µM
GI50 (HCT-116 colon): 1.59 µM
TGI (HCT-116 colon): 3.13 µM
GI50 (NCI-H23 lung): 3.99 µM
TGI (NCI-H23 lung): 15.9 µM
GI50 (UACC-257 melanoma): 2.15 µM
TGI (UACC-257 melanoma): 6.34 µM
GI50 (HOP-62 NSCLC): 14 µM
TGI (HOP-62 NSCLC): 42.2 µM
GI50 (SK-MEL-2 melanoma): 4.1 µM
TGI (SK-MEL-2 melanoma): 14.6 µM
GI50 (SK-MEL-28 melanoma): 1.81 µM
TGI (SK-MEL-28 melanoma): 3.38 µM
GI50 (SK-OV-3 ovarian): 25.1 µM
TGI (SK-OV-3 ovarian): 70.6 µM
GI50 (COLO 205 colon): 2.04 µM
TGI (COLO 205 colon): 4.35 µM
GI50 (K-562 leukemia): 2.07 µM
TGI (K-562 leukemia): > 100 µM
GI50 (BT-549 breast): 1.97 µM
TGI (BT-549 breast): 4.49 µM
GI50 (OVCAR-8 ovarian): 3.19 µM
TGI (OVCAR-8 ovarian): 21.2 µM
GI50 (MOLT-4 leukemia): 1.19 µM
TGI (MOLT-4 leukemia): 4.5 µM
GI50 (NCI-H226 lung): 18.1 µM
TGI (NCI-H226 lung): 39.9 µM
GI50 (HS 578T breast): 3.92 µM
TGI (HS 578T breast): 27.2 µM
GI50 (HCC-2998 colon): 2.27 µM
TGI (HCC-2998 colon): 5.43 µM
GI50 (PC-3 prostate): 1.97 µM
TGI (PC-3 prostate): 4.04 µM
GI50 (MDA-MB-231 breast): 1.91 µM
TGI (MDA-MB-231 breast): 3.8 µM
GI50 (DU-145 prostate): 1.92 µM
TGI (DU-145 prostate): 4.1 µM
GI50 (KM12 colon): 10.3 µM
TGI (KM12 colon): 23.5 µM
GI50 (HCT-15 colon): 1.41 µM
TGI (HCT-15 colon): 3.04 µM
GI50 (T-47D breast): 2.3 µM
TGI (T-47D breast): 6.24 µM
GI50 (UACC-62 melanoma): 3.08 µM
TGI (UACC-62 melanoma): 11 µM
GI50 (NCI-H460 lung): 11.5 µM
TGI (NCI-H460 lung): 26 µM
GI50 (HL-60(TB) leukemia): 2.09 µM
TGI (HL-60(TB) leukemia): 5.84 µM
GI50 (MDA-MB-435): 1.89 µM
TGI (MDA-MB-435): 4.01 µM
GI50 (HOP-92 NSCLC): 1.78 µM
TGI (HOP-92 NSCLC): 3.45 µM
GI50 (OVCAR-5 ovarian): 2.07 µM
TGI (OVCAR-5 ovarian): 4.44 µM
GI50 (U251 CNS): 9.4 µM
TGI (U251 CNS): 22.7 µM
GI50 (SNB-75 CNS): 10.6 µM
TGI (SNB-75 CNS): 22.7 µM
GI50 (786-0 renal): 1.62 µM
TGI (786-0 renal): 3.3 µM
GI50 (MCF7 breast): 1.59 µM
TGI (MCF7 breast): 3.94 µM
